From ChEMBL document CHEMBL4507291 (2021)

Legend:
Settings in all cases: Compound concentration 1.0 uM
[1] = target: T1, Serine/threonine-protein kinase Nek9 (Homo sapiens) (UniProt Q8TD19); assay: NEK9 Kinase screen
T1 sequence (whole entry): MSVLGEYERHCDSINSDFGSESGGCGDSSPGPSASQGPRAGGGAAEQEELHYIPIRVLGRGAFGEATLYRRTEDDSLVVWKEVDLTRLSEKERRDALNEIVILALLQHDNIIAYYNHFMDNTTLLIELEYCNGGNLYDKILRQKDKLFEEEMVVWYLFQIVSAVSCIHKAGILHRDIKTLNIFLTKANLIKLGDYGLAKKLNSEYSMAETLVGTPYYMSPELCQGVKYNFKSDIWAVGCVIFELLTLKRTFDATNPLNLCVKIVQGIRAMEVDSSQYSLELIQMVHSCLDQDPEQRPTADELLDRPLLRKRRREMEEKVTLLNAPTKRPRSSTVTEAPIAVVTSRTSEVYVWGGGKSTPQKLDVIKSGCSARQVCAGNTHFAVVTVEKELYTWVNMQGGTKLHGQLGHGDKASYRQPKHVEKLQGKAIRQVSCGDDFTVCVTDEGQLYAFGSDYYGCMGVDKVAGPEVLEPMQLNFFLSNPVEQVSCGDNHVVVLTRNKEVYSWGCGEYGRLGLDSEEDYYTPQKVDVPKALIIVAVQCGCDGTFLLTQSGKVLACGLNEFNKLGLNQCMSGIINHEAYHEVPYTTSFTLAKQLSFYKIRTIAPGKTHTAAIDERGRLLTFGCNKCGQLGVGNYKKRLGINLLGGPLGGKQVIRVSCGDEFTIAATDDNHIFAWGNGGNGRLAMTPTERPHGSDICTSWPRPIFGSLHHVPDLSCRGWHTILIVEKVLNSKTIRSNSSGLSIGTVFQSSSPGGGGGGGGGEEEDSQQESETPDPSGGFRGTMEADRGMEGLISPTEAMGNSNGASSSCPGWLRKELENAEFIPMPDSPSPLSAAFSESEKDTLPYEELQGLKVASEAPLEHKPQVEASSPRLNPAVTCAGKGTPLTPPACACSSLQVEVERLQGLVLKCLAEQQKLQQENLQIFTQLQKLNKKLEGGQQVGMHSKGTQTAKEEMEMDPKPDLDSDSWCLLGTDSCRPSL

[2] = target: Serine/threonine-protein kinase PAK 3 (Homo sapiens) (UniProt O75914); assay: PAK3 Kinase screen
[3] = target: T2, Serine/threonine-protein kinase TAO2 (Homo sapiens) (UniProt Q9UL54); assay: TAOK2 (TAO1) Kinase screen
T2 sequence (whole entry): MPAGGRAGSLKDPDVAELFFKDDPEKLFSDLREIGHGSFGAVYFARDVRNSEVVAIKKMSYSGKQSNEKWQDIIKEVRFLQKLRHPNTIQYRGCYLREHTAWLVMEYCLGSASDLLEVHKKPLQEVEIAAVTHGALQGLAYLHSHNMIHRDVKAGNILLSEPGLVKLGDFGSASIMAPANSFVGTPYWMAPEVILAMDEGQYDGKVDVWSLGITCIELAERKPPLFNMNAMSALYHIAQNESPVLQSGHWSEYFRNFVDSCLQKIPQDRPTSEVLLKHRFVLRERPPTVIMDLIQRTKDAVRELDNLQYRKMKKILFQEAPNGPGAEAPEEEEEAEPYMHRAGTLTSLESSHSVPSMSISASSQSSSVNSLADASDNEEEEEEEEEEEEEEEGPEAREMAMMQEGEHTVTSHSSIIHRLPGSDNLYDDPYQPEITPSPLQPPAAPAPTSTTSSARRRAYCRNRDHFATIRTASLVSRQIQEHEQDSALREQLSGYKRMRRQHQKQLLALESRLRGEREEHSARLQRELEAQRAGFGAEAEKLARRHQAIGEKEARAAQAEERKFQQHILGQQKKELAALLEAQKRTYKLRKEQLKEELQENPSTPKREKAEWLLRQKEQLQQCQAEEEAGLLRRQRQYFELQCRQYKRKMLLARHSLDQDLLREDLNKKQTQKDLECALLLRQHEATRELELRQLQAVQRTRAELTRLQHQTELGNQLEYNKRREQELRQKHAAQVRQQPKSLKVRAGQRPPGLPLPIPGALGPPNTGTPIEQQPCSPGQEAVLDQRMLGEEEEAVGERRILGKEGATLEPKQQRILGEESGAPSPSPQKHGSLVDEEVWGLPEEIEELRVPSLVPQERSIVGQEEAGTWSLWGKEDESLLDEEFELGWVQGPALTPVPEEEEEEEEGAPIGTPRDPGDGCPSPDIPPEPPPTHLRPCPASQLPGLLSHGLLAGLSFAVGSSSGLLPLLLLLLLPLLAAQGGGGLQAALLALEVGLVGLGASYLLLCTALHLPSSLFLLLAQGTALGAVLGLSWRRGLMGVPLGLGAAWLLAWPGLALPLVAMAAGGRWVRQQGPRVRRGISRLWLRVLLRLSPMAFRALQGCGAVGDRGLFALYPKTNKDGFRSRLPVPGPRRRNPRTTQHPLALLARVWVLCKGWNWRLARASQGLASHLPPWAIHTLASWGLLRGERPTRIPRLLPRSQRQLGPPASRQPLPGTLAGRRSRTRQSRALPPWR

[4] = target: T3, TGF-beta receptor type-1 (Homo sapiens) (UniProt P36897); assay: TGFBR1 (ALK5) Kinase screen
T3 sequence (whole entry): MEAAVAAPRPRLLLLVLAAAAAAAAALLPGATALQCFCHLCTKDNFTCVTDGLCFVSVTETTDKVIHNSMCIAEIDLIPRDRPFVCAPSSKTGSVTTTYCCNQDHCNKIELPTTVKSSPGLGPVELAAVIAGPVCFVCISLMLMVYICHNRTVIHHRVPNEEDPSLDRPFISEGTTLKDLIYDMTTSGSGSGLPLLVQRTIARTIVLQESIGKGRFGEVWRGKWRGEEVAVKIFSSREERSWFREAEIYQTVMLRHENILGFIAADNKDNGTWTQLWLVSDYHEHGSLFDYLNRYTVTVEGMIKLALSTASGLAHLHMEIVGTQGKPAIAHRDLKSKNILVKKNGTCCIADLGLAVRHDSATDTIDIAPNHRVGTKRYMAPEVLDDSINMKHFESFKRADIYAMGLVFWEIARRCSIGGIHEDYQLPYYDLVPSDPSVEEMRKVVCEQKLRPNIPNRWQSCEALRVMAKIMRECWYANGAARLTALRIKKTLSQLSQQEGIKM

Measured: inhibition

Chain of Serine/threonine-protein kinase PAK 3 (Homo sapiens) (O75914 whole entry, looked up): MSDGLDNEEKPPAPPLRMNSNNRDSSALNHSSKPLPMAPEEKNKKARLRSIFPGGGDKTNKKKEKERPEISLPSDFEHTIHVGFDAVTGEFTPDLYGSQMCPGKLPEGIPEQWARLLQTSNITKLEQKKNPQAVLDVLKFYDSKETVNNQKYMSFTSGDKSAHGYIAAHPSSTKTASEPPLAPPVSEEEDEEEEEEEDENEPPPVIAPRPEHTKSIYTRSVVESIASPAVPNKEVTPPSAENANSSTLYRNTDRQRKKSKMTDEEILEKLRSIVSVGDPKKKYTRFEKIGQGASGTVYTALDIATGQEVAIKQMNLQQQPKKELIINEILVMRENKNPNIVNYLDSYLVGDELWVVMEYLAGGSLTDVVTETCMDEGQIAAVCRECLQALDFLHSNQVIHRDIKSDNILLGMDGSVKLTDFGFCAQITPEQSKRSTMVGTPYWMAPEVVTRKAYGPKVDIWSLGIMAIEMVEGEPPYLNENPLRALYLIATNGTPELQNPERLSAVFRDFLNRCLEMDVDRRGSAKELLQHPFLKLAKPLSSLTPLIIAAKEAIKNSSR

C[C@@H]1CN(c2cc(-c3n[nH]c4ccc(OC5(C)CC5)cc34)ncn2)C[C@H](C)O1 [MLi-2]
inactive: [1] -0.999% | [2] 10.9% | [3] -2.67% | [4] 0.904%
